Measurements as given in patent US8802597B2, “Herbicidal pyrimidines” (E I du Pont de Nemours and Company, priority 2003, dated 2014).

Tests used:
Assay in all cases: Test C pre/postemergence
Format in all cases: in vivo
[1] = system: morningglory (Ipomoea coccinea); details: for Morningglory plant response rating: scale 0 to 100 (0 no effect, 100 complete control)
Method in brief: (§1)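 Test compounds, formulated in a non-phytotoxic solvent mix with surfactant, were applied to freshly planted seeds and, at the same time, to emerged plants at 1- to 4-leaf stage (2 to 18 cm). After 12 to 14 days in the greenhouse, response was scored visually versus controls, 0 = no effect, 100 = complete control.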

kochia (Kochia scoparia) = details: for Kochia plant response rating: scale 0 to 100 (0 no effect, 100 complete control)
Method in brief: as §1

[2] = system: Surinam grass (Brachiaria decumbens); details: for Surinam Grass plant response rating: scale 0 to 100 (0 no effect, 100 complete control)
Method in brief: as §1

soybean (Glycine max) = details: for Soybean plant response rating: scale 0 to 100 (0 no effect, 100 complete control)
Method in brief: as §1

corn (Zea mays) = details: for Corn plant response rating: scale 0 to 100 (0 no effect, 100 complete control)
Method in brief: as §1

[3] = system: giant foxtail (Setaria faberii); details: for Foxtail, Giant plant response rating: scale 0 to 100 (0 no effect, 100 complete control)
Method in brief: as §1

[4] = system: eastern black nightshade (Solanum ptycanthum); details: Preemergence
Method in brief: as §1

[5] = system: cocklebur (Xanthium strumarium); details: for Cocklebur plant response rating: scale 0 to 100 (0 no effect, 100 complete control)
Method in brief: as §1

[6] = system: johnsongrass (Sorghum halepense); details: for Johnsongrass plant response rating: scale 0 to 100 (0 no effect, 100 complete control)
Method in brief: as §1

[7] = system: lambsquarters (Chenopodium album); details: for Lambsquarters plant response rating: scale 0 to 100 (0 no effect, 100 complete control)
Method in brief: as §1

[8] = system: crabgrass (Digitaria sanguinalis); details: for Crabgrass plant response rating: scale 0 to 100 (0 no effect, 100 complete control)
Method in brief: as §1

[9] = system: common (oilseed) sunflower (Helianthus annuus); details: Preemergence
Method in brief: as §1

[10] = Postemergence, 250 g ai/ha, scale 0 to 100
[11] = Postemergence, 500 g ai/ha, scale 0 to 100
[12] = Preemergence, 62 g ai/ha, scale 0 to 100, 0 no effect, 100 complete control
[13] = Preemergence, 125 g ai/ha, scale 0 to 100
[14] = Preemergence, 250 g ai/ha, scale 0 to 100
[15] = Preemergence, 500 g ai/ha, scale 0 to 100
[16] = 62 g ai/ha, scale 0 to 100, 0 no effect, 100 complete control

CCCOC(=O)c1nc(C2CC2)nc(N)c1Br [Compound 15]
65: Plant response rating, Surinam Grass [2, 11] | Plant response rating, Surinam Grass [2, 13] | Plant response rating, Foxtail, Giant [3, 10] | Plant response rating, Foxtail, Giant [3, 14] | Plant response rating, Cocklebur [5, 12] | Plant response rating, Johnsongrass [6, 13] | Plant response rating, Crabgrass [8, 10] | Plant response rating, Sunflower [9, 16]
80: Plant response rating, Foxtail, Giant [3, 15] | Plant response rating, Johnsongrass [6, 11] | Plant response rating, Crabgrass [8, 11]
85: Cocklebur plant response rating ([5]; Postemergence, 62 g ai/ha)
45: Plant response rating, Corn (corn (Zea mays); [14]) | Foxtail, Giant plant response rating ([3]; Postemergence, 62 g ai/ha) | Crabgrass plant response rating ([8]; Postemergence, 125 g ai/ha)
20: Surinam Grass plant response rating ([2]; Postemergence, 125 g ai/ha) | Johnsongrass plant response rating ([6]; Postemergence, 62 g ai/ha) | Plant response rating, Johnsongrass [6, 12]
90: Morningglory plant response rating ([1]; Postemergence, 62 g ai/ha) | Plant response rating, Soybean (soybean (Glycine max); [13]) | Plant response rating, Cocklebur [5, 13]
15: Plant response rating, Surinam Grass [2, 12] | Corn plant response rating (corn (Zea mays); Postemergence, 62 g ai/ha) | Corn plant response rating (corn (Zea mays); Postemergence, 125 g ai/ha) | Plant response rating, Corn (corn (Zea mays); [13]) | Crabgrass plant response rating ([8]; Postemergence, 62 g ai/ha)
95: Morningglory plant response rating ([1]; Postemergence, 125 g ai/ha) | Plant response rating, Morningglory [1, 12] | Kochia plant response rating (kochia (Kochia scoparia); Postemergence, 62 g ai/ha) | Kochia plant response rating (kochia (Kochia scoparia); Postemergence, 125 g ai/ha) | Plant response rating, Kochia (kochia (Kochia scoparia); [12]) | Plant response rating, Surinam Grass [2, 15] | Soybean plant response rating (soybean (Glycine max); Postemergence, 62 g ai/ha) | Soybean plant response rating (soybean (Glycine max); Postemergence, 125 g ai/ha) | Plant response rating, Soybean (soybean (Glycine max); [10]) | Plant response rating, Soybean (soybean (Glycine max); [14]) | Plant response rating, Nightshade [4, 16] | Plant response rating, Johnsongrass [6, 15] | Plant response rating, Lambsquarters [7, 12] | Plant response rating, Crabgrass [8, 13] | Plant response rating, Crabgrass [8, 14]
100: Plant response rating, Morningglory [1, 10] | Plant response rating, Morningglory [1, 11] | Plant response rating, Morningglory [1, 13] | Plant response rating, Morningglory [1, 14] | Plant response rating, Morningglory [1, 15] | Plant response rating, Kochia (kochia (Kochia scoparia); [10]) | Plant response rating, Kochia (kochia (Kochia scoparia); [11]) | Plant response rating, Kochia (kochia (Kochia scoparia); [13]) | Plant response rating, Kochia (kochia (Kochia scoparia); [14]) | Plant response rating, Kochia (kochia (Kochia scoparia); [15]) | Plant response rating, Soybean (soybean (Glycine max); [11]) | Plant response rating, Soybean (soybean (Glycine max); [15]) | Plant response rating, Nightshade ([4]; 125 g ai/ha, scale 0 to 100) | Plant response rating, Nightshade ([4]; 250 g ai/ha, scale 0 to 100) | Plant response rating, Nightshade ([4]; 500 g ai/ha, scale 0 to 100) | Cocklebur plant response rating ([5]; Postemergence, 125 g ai/ha) | Plant response rating, Cocklebur [5, 10] | Plant response rating, Cocklebur [5, 11] | Plant response rating, Cocklebur [5, 14] | Plant response rating, Cocklebur [5, 15] | Lambsquarters plant response rating ([7]; Postemergence, 62 g ai/ha) | Lambsquarters plant response rating ([7]; Postemergence, 125 g ai/ha) | Plant response rating, Lambsquarters [7, 10] | Plant response rating, Lambsquarters [7, 11] | Plant response rating, Lambsquarters [7, 13] | Plant response rating, Lambsquarters [7, 14] | Plant response rating, Lambsquarters [7, 15] | Plant response rating, Crabgrass [8, 15] | Plant response rating, Sunflower ([9]; 125 g ai/ha, scale 0 to 100) | Plant response rating, Sunflower ([9]; 250 g ai/ha, scale 0 to 100) | Plant response rating, Sunflower ([9]; 500 g ai/ha, scale 0 to 100)
60: Plant response rating, Corn (corn (Zea mays); [15]) | Foxtail, Giant plant response rating ([3]; Postemergence, 125 g ai/ha)
75: Plant response rating, Surinam Grass [2, 14] | Plant response rating, Soybean (soybean (Glycine max); [12]) | Plant response rating, Corn (corn (Zea mays); [11]) | Plant response rating, Johnsongrass [6, 14]
0: Surinam Grass plant response rating ([2]; Postemergence, 62 g ai/ha) | Plant response rating, Corn (corn (Zea mays); [12]) | Plant response rating, Foxtail, Giant [3, 12] | Plant response rating, Foxtail, Giant [3, 13] | Plant response rating, Crabgrass [8, 12]
55: Plant response rating, Surinam Grass [2, 10] | Plant response rating, Corn (corn (Zea mays); [10]) | Johnsongrass plant response rating ([6]; Postemergence, 125 g ai/ha)
70: Plant response rating, Foxtail, Giant [3, 11] | Plant response rating, Johnsongrass [6, 10]
